Where two headings read alike, the source gives them in different places.
Tested on: primary AML cells
Assay: Sample drug screening: viability of primary AML cells (PrestoBlue) after 24 h drug exposure in nine culture conditions
Conditions: for IC50: Homo sapiens; for sensitivity of AML cells to the drug: co-culture with AML MSC-derived niches; for chemosensitivity of primary AML cells towards the drug: co-culture with healthy 3DON

Row | SMILES | IC50 (read-out: IC50 daunorubicin, primary AML cells co-cultured with AML 2DMN) [µM] | IC50 (read-out: IC50 daunorubicin, primary AML cells co-cultured with AML 3DMN) [µM] | IC50 (read-out: IC50 daunorubicin, primary AML cells co-cultured with AML 3DON) [µM] | IC50 (read-out: IC50 daunorubicin, primary AML cells co-cultured with healthy 2DMN) [µM] | IC50 (read-out: IC50 daunorubicin, primary AML cells co-cultured with healthy 3DMN) [µM] | IC50 (read-out: IC50 daunorubicin, primary AML cells in NC1 (AML medium)) [µM] | IC50 (read-out: IC50 daunorubicin, primary AML cells in NC2 (MSC medium)) [µM] | IC50 (read-out: IC50 daunorubicin, primary AML cells in PC (engineered growth factor cocktail medium)) [µM] | sensitivity of AML cells to the drug | chemosensitivity of primary AML cells towards the drug
1 | COc1cccc2c1C(=O)c1c(O)c3c(c(O)c1C2=O)C[C@@](O)(C(C)=O)C[C@@H]3O[C@H]1C[C@H](N)[C@H](O)[C@H](C)O1 [daunorubicin] | 74 | 55.9 | 43.4 | 0.571 | 3.31 | 0.0486 | 0.525 | 34.3 | less sensitive | increase the chemosensitivity
2 | COc1cccc2c1C(=O)c1c(O)c3c(c(O)c1C2=O)C[C@@](O)(C(=O)CO)C[C@@H]3O[C@H]1C[C@H](N)[C@H](O)[C@H](C)O1 [doxorubicin] |  |  |  |  |  |  |  |  | less sensitive | increase the chemosensitivity
